Usually IC50 stands for the midpoint of a concentration-inhibition curve.

In assay [1] the target is YFV polymerase (NS5 RdRp) (Yellow fever virus, UniProt P03314). The assay can be described thus: biochemical.
For assay [2], the system named is flaviviral polymerases (DENV3, TBEV, JEV, WNV, ZIKV, YFV). The class given is biochemical, flaviviruses.
Assay [3] deals with six flaviviral polymerases (NS5 proteins of DENV3, TBEV, JEV, WNV, ZIKV, YFV). Format: biochemical, flaviviruses.

Sequence of YFV polymerase (NS5 RdRp) (P03314 2507-3411 limits assumed): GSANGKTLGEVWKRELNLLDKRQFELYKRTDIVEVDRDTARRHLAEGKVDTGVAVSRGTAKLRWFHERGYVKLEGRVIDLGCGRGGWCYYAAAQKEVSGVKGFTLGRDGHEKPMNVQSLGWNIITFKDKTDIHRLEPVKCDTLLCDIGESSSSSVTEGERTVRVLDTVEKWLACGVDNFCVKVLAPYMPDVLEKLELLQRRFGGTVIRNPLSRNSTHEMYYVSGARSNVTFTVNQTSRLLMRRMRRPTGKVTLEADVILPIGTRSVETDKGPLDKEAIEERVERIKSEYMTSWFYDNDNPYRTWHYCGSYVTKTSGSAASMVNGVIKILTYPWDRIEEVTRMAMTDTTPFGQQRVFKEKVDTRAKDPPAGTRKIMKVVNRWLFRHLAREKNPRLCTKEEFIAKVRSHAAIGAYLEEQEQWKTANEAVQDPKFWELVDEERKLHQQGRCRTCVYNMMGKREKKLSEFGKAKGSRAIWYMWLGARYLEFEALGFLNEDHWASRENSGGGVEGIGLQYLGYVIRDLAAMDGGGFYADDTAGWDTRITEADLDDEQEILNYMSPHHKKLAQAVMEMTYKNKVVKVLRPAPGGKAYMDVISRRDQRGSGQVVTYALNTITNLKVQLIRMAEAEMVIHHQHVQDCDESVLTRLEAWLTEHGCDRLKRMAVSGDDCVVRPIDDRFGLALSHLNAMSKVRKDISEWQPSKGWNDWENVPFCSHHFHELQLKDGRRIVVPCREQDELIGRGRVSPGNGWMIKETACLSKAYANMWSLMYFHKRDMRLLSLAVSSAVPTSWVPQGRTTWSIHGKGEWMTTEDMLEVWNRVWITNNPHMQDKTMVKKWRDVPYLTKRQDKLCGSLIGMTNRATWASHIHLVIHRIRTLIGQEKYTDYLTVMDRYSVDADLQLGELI

As for `CCC(CC)COC(=O)[C@H](C)N[P@](=O)(OC[C@H]1O[C@@](C#N)(c2ccc3c(N)ncnn23)[C@H](O)[C@@H]1O)Oc1ccccc1` [remdesivir, Remdesivir], the IC50 is 260 ± 30 nM in assay [1] and 200 to 2200 nM in assay [2] (read-out: IC50 range, all the tested flaviviral polymerases). Moreover, in assay [2], the “IC50s range in words, flaviviral RdRps” value was “hundreds of nanomolar to single digit micromolar”. For the same compound, the “incorporation into newly synthesized RNA chain / chain termination” value in assay [3] is “able to incorporate several (five) remdesivir molecules into the newly synthesized RNA chain and finish the primer elongation reaction”.

The record behind these values is PMC7403104 (Antiviral Research, 2020).
